Where two headings read alike, the source gives them in different places.

The source of these data is patent US20220363710A1, “SMALL-MOLECULE COMPOUND HAVING A2A ADENOSINE RECEPTOR ANTAGONISM” (ACADEMY OF MILITARY MEDICAL SCIENCES, priority 2019, published 2022).

In series [1] the target is T1, (human) A2A adenosine receptor (Homo sapiens, UniProt P29274).
T1 construct: purchased PerkinElmer Research Products (Boston, Mass.); host or cells: HEK-293 cells, stably transfected; membrane preparation
T1 sequence (P29274 whole entry): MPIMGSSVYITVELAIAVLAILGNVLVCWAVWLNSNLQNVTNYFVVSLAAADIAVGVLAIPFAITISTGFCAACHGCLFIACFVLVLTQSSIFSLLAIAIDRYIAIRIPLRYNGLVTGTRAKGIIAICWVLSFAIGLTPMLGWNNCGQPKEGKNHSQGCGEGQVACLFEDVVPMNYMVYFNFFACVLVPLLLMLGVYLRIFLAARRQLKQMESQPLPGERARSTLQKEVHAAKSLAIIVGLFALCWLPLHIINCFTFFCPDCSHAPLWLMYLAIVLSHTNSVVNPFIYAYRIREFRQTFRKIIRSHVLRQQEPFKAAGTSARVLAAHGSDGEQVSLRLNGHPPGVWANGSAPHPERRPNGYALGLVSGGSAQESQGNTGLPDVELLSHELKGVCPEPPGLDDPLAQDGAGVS
Briefly: Radioligand binding test ([3H]CGS21680 displacement, hA2A HEK-293 cell membranes). The settings on record: for IC50: [3H]-CGS 21680 25 nM, hA2A HEK-293 cell membrane, 25° C., 90 minutes, read-out: IC50 (nM), compounds binding to A2A adenosine receptor; for Ki: read-out: Ki (nM), inhibition constant for binding to A2A adenosine receptor. How it is done:
Cell membranes stably transfected with (human) A2A adenosine receptor were prepared in HEK-293 cells. The cell membranes were obtained from PerkinElmer Research Products (Boston, Mass.).
CGS 21680 (2-[p-(2-carboxyethyl)phenylethylamino]-5′-ethylcarboxamidoadenosine) was purchased from Selleck (Shanghai, CN).
The A2A adenosine receptors used were all expressed in the cell membranes. The compound was diluted 3 times serially with DMSO (Solarbio, D8371-250 ml) to generate compound source plates with 10 different concentrations (10 μM, 3.3 μM, 1.1 μM, 0.37 μM, 0.12 μM, 0.0412 μM, 0.0137 μM, 0.0046 μM, 0.0015 μM, 0.0005 μM), 250 nL of compound was added to 384-well Opti-plate, sealed with parafilm. […] (final 25 nM) was added to the diluted cell membrane and mixed well. 50 μL of the prepared dilution solution of cell membrane was transferred to the 384-well Opti-plate containing compound and incubated at 25° C. for 90 minutes. 100 μL of 0.5% Polyethyleneimine solution (PEI) was added to […]-96 GF/B filter plate, and soaked for 90 minutes at 4° C., then 500 μL of washing buffer/well (50 mM Tris-HCl, pH 7.4, 154 mM NaCl) was transferred with Cell Harvester to wash the […]-96 GF/B filter plate twice. The mixed system in the Opti-plate was transferred to the washed […]-96 GF/B filter plate, 500 μL of washing buffer/well (50 mM Tris-HCl, pH 7.4, 154 mM NaCl) was used to wash the […]-96 GF/B filter plate 9 times. Incubation was performed at 37° C. for 3 minutes. 40 μL of ULTIMA GOLD scintillation solution (Perkin Elmer, Cat #77-16061) was added to each well, CPM (count per minute) value was read by a MicroBeta liquid scintillation counter (PerkinElmer).

For series [2], the target named is human adenosine receptor A2A (Homo sapiens, UniProt P29274). Briefly: A2A adenosine receptor cAMP test (LANCE Ultra cAMP, hADORA2A-HEK293 cells). The class given is cell-based. The text has this:
A2A Adenosine Receptor cAMP Test
Experimental reagents and consumables: DMEM/F12, G418, Penicillin-Streptomycin, Versene Solution, HEPES, Hank's Buffered Saline Solution, PBS (pH 7.4, 1×, sterile), FBS, BSA Stabilizer 7.5%, Rolipram, NECA were separately purchased from Gibico, Hyclone and Sigma. LANCE® Ultra cAMP kit (Eu-cAMP tracer, Ulight-anti-cAMP reagent, cAMP detection buffer) and hADORA2A-HEK293 cells were purchased from PerkinElmer Research Products (Boston, Mass.). All other reagents were of analytical grade and obtained from commercial sources. 384-well polypropylene microplate and 384-well solid white plate were purchased from Labcyte and Corning, respectively.
Experimental instruments: TECAN automated liquid handling workstation, Echo Acoustic Liquid Handler and EnVison multimode plate reader were purchased from TECAN, Labcyte and […], respectively.
The cells stably expressing human adenosine receptor A2A (hADORA2A-HEK293 cells) were cultured in DMEM/F12 medium containing 10% FBS, 1× Penicillin-Streptomycin and 400 μg/ml G418 in a 37° C. and 5% CO2 environment. Before the experiment, the cells were digested with Versene solution, and the cells were collected by centrifugation at 200 g and room temperature for 5 minutes, and finally resuspended with assay buffer (Hank's buffered saline solution, containing 5 mM HEPES, 0.1% BSA stabilizer and 10 μM Rolipram, pH 7.4). The TECAN automated liquid handling workstation was used to dilute the compound in a 384-well polypropylene microplate with DMSO to 11 concentration points in a 3-fold gradient to prepare the compound source plate, in which the 11 concentration points of the compound were 10 mM, 3.33 mM, 1.11 mM., 0.37 mM, 0.12 mM, 0.041 mM, 0.013 mM, 4.57×10^−3 mM, 1.52×10^−3 mM, 5×10−4 mM and 1.7×10^−4 mM. The Echo Acoustic Liquid Handler (Labcyte) was used to transfer the test compound from the compound source plate to an assay plate, in which the transfer volume of the compound was 10 nl/well. The hADORA2A-HEK293 cell suspension was diluted with assay buffer to 30,000 cells/ml, and the cell suspension was transferred to the assay plate at a volume of 10 μl/well (300 cells/well). The assay plate was centrifuged at 150 g for 1 minute and pre-incubated at room temperature for 30 minutes. The Eu-cAMP tracer working solution (Eu-cAMP tracer 40 μl, cAMP detection buffer 1.96 ml) (5 μl/well) was added to the assay plate, and then the Ulight-anti-cAMP working solution (13 μl of Ulight-anti-cAMP reagent and 1.95 ml of cAMP detection buffer) (5 μl/well) was added to the assay plate. The assay plate was rotated at 150 g for 30 seconds and incubated at room temperature for 30 minutes. The EnVison multimode plate reader (PerkinElmer) was used determine the level of cyclic adenosine monophosphate in the final solution (λex=320 nm, λem=665 nm & 615 nm). The EC50 (nM) value of the compound interacting with the A2A adenosine receptor to stimulate the production of cyclic adenosine monophosphate was calculated and the titer of the compound function was expressed as the EC50 (nM) value.
When the test compounds interacted with A2AAR, the EC50 (nM) values for stimulating the production of cyclic AMP were shown in Table 2.
On the technique in general: In TR-FRET formats the signal depends on donor and acceptor labels being close together.

[3] abbreviates: stimulating the production of cyclic AMP, read-out: cAMP EC50.
Where [4] appears, read: stimulating the production of cyclic adenosine monophosphate, read-out: cAMP EC50 values.

Chain of human adenosine receptor A2A (P29274 whole entry): as above

Turning to `OC[C@H]1O[C@@H](n2cnc3c2ncn2c(-c4cncs4)nnc32)[C@@H](O)[C@H]1O` [Compound 12, (2R,3S,4R,5R)-2-{3-(thiazol-5-yl)-7H-[1,2,4]triazolo[3,4-i]purin-7-yl}-5-(hydroxymethyl)tetrahydrofuran-3,4-diol], the melting point was found to be 216 °C. Moreover, in series [1], the IC50 worked out at 3.9 nM and the Ki worked out at 1.8 nM. Further, the “agonistic activity at hA2AAR (cAMP production)” value (shortened to “agonistic activity at hA2AAR”) in series [2] is on record as “no agonistic activity”. Further, the EC50 in series [2] (setting [3]) was more than 10000 nM. In addition, the EC50 in series [2] (setting [4]) was more than 10000 nM.
The compound `OC[C@H]1O[C@@H](n2cnc3c2ncn2c(-c4cccc(OCc5ccccc5)c4)nnc32)[C@H](O)[C@@H]1O` [Compound 5, (2R,3R,4S,5R)-2-{3-[3-(benzyloxy)phenyl]-7H-[1,2,4]triazolo[3,4-i]purin-7-yl}-5-(hydroxymethyl)tetrahydrofuran-3,4-diol] had a melting point of 76 °C. Moreover, in series [1], the IC50 was determined as 6.2 nM and the Ki came to 2.9 nM. Moreover, the “agonistic activity at hA2AAR” value in series [2] is “no agonistic activity”. For the same compound, in series [2] (setting [3]), the EC50 was more than 10000 nM. Moreover, the EC50 in series [2] (setting [4]) was more than 10000 nM.
In turn, `CCCOc1ccc(-c2nnc3c4ncn([C@@H]5O[C@H](CO)[C@H](O)[C@@H]5O)c4ncn23)cc1` [Compound 9, (2R,3S,4R,5R)-2-{3-(4-propoxyphenyl)-7H-[1,2,4]triazolo[3,4-i]purin-7-yl}-5-(hydroxymethyl)tetrahydrofuran-3,4-diol] showed a melting point of 118 °C. In series [1], the IC50 worked out at 4.3 nM and the Ki worked out at 2 nM. For the same compound, the “agonistic activity at hA2AAR” value in series [2] is on record as “no agonistic activity”. For the same compound, the EC50 in series [2] (setting [3]) was more than 10000 nM. Moreover, the EC50 in series [2] (setting [4]) is more than 10000 nM.
In the case of `CC(=O)Nc1ccc(-c2nnc3c4ncn([C@@H]5O[C@H](CO)[C@@H](O)[C@H]5O)c4ncn23)cc1` [Compound 1, N-{4-{7-[(2R,3R,4S,5R)-3,4-dihydroxy-5-(hydroxymethyl)tetrahydrofuran-2-yl]-7H-[1,2,4]triazolo[3,4-i]purin-3-yl}phenyl}acetamide], the melting point stood at 132 °C. For the same compound, in series [1], the IC50 came to 6.4 nM and the Ki was 3 nM. The “agonistic activity at hA2AAR” value in series [2] is listed as “no agonistic activity”. Moreover, the EC50 in series [2] (setting [3]) was more than 10000 nM. The EC50 in series [2] (setting [4]) is more than 10000 nM.
Turning to `OC[C@H]1O[C@@H](n2cnc3c2ncn2c(C4CCCC4)nnc32)[C@H](O)[C@@H]1O` [Compound 2, (2R,3R,4S,5R)-2-{3-cyclopentyl-7H-[1,2,4]triazolo[3,4-i]purin-7-yl}-5-(hydroxymethyl)tetrahydrofuran-3,4-diol], the melting point is 84 °C. Besides, in series [1], the IC50 came to 3.9 nM and the Ki was 1.8 nM. In series [2], the “agonistic activity at hA2AAR” value is on record as “no agonistic activity”. Moreover, in series [2] (setting [3]), the EC50 was more than 10000 nM. For the same compound, the EC50 in series [2] (setting [4]) was more than 10000 nM.
The compound `OC[C@H]1O[C@@H](n2cnc3c2ncn2c(-c4ccc(OCc5ccc(F)cc5)cc4)nnc32)[C@H](O)[C@@H]1O` [Compound 4, (2R,3R,4S,5R)-2-{3-{4-[(4-fluorobenzyl)oxy]phenyl}-7H-[1,2,4]triazolo[3,4-i]purin-7-yl}-5-(hydroxymethyl)tetrahydrofuran-3,4-diol] registered a melting point of 112 °C. Moreover, in series [1], the IC50 is 3.9 nM and the Ki came out at 1.8 nM. For the same compound, the “agonistic activity at hA2AAR” value in series [2] is on record as “no agonistic activity”. The EC50 in series [2] (setting [3]) is more than 10000 nM. Further, the EC50 in series [2] (setting [4]) is more than 10000 nM.

Usually melting point stands for the temperature of the solid-liquid transition. As usually defined, the IC50 is the point on the concentration scale where inhibition reaches its midpoint. What is called Ki is a measure of affinity in units of concentration, obtained from inhibition or displacement. In general, EC50 refers to the concentration that produces a half-maximal response.
